Measured values taken from PubChem BioAssay AID1963426 (Molecular Pharmacology Branch, DTP, NCI, 2024).

System: 186277-243-T-J2-PDC complex spheroid growth, % test/control
Assay: Anticancer human tumor 186277-243-T-J2-PDC patient-derived colon adenocarcinoma cell line growth inhibition [Asc]
Conditions: for IC50: curve of first compound; for viability, T/C: stronger effect = lower value
Method in brief: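 Complex solid-tumor spheroids incorporating human endothelial and mesenchymal stem cells received single agents or combinations over half-log dilution ranges anchored to clinical Cmax.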

[1] = second compound 0.1 µM, first compound 0.00316 µM
[2] = second compound 0.1 µM, first compound 0.01 µM
[3] = second compound 0.1 µM, first compound 0.0316 µM
[4] = second compound 0.1 µM, first compound 0.1 µM
[5] = second compound 0.1 µM, first compound 0.316 µM
[6] = second compound 0.1 µM, first compound 1 µM
[7] = second compound 0.316 µM, first compound 0.00316 µM
[8] = second compound 0.316 µM, first compound 0.01 µM
[9] = second compound 0.316 µM, first compound 0.0316 µM
[10] = second compound 0.316 µM, first compound 0.1 µM
[11] = second compound 0.316 µM, first compound 0.316 µM
[12] = second compound 0.316 µM, first compound 1 µM
[13] = second compound 1 µM, first compound 0.00316 µM
[14] = second compound 1 µM, first compound 0.01 µM
[15] = second compound 1 µM, first compound 0.0316 µM
[16] = second compound 1 µM, first compound 0.1 µM
[17] = second compound 1 µM, first compound 0.316 µM
[18] = second compound 1 µM, first compound 1 µM
[19] = second compound 3.16 µM, first compound 0.00316 µM
[20] = second compound 3.16 µM, first compound 0.01 µM
[21] = second compound 3.16 µM, first compound 0.0316 µM
[22] = second compound 3.16 µM, first compound 0.1 µM
[23] = second compound 3.16 µM, first compound 0.316 µM
[24] = second compound 3.16 µM, first compound 1 µM
[25] = second compound 10 µM, first compound 0.00316 µM
[26] = second compound 10 µM, first compound 0.01 µM
[27] = second compound 10 µM, first compound 0.0316 µM
[28] = second compound 10 µM, first compound 0.1 µM
[29] = second compound 10 µM, first compound 0.316 µM
[30] = second compound 10 µM, first compound 1 µM
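Also: spheroids exposed to agents for 7 days.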
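For viability, T/C in this document: 100% = DMSO vehicle control wells.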

| Compound | IC50 (second compound 0.1 µM) | IC50 (second compound 0.316 µM) | IC50 (second compound 1 µM) | IC50 (second compound 3.16 µM) | IC50 (second compound 10 µM) | viability, T/C [1] | viability, T/C [2] | viability, T/C [3] | viability, T/C [4] | viability, T/C [5] | viability, T/C [6] | viability, T/C [7] | viability, T/C [9] | viability, T/C [10] | viability, T/C [15] | viability, T/C [16] | viability, T/C [21] | viability, T/C [22] | viability, T/C [27] | viability, T/C [28] | also measured |
| --- | --- | --- | --- | --- | --- | --- | --- | --- | --- | --- | --- | --- | --- | --- | --- | --- | --- | --- | --- | --- | --- |
| CCN1CCN(Cc2ccc(Nc3ncc(F)c(-c4cc(F)c5nc(C)n(C(C)C)c5c4)n3)nc2)CC1 + Cc1c(S(C)(=O)=O)c(-c2cc(F)cc(N3CCN(c4ccc(NS(=O)(=O)c5ccc(NC(CCN6CCC(C(=O)OCCCP(=O)(O)O)CC6)CSc6ccccc6)c(S(=O)(=O)C(F)(F)F)c5)cc4)CC3)c2)c(-c2ccc(Cl)cc2)n1C(C)C | > 1000 nM | > 1000 nM | > 1000 nM | 788 nM | 738 nM | 107% | 99.1% | 103% | 125% | 123% | 75.3% | 95.2% | 103% | 115% | 102% | 120% | 101% | 113% | 100% | 110% | viability, T/C [8]: 94.1%; viability, T/C [11]: 114%; viability, T/C [12]: 67.7%; viability, T/C [13]: 86.6%; viability, T/C [14]: 99.6%; viability, T/C [17]: 101%; viability, T/C [18]: 56.7%; viability, T/C [19]: 96.4%; viability, T/C [20]: 89.8%; viability, T/C [23]: 89.8%; viability, T/C [24]: 39.6%; viability, T/C [25]: 91.3%; viability, T/C [26]: 84.3%; viability, T/C [29]: 93.5%; viability, T/C [30]: 34.2% |
| Cn1ncnc1[C@H]1c2n[nH]c(=O)c3cc(F)cc(c23)N[C@@H]1c1ccc(F)cc1 + Cc1c(S(C)(=O)=O)c(-c2cc(F)cc(N3CCN(c4ccc(NS(=O)(=O)c5ccc(NC(CCN6CCC(C(=O)OCCCP(=O)(O)O)CC6)CSc6ccccc6)c(S(=O)(=O)C(F)(F)F)c5)cc4)CC3)c2)c(-c2ccc(Cl)cc2)n1C(C)C | > 100 nM | > 100 nM | > 100 nM | > 100 nM | 75 nM | 101% | 101% | 108% | 99.1% |  |  | 114% | 98.3% | 86.8% | 70% | 63.8% | 66% | 56.1% | 70.5% | 43.2% | viability, T/C (second compound 0.1 µM, first compound 0.000316 µM): 98.4%; viability, T/C (second compound 0.1 µM, first compound 0.001 µM): 85.5%; viability, T/C (second compound 0.316 µM, first compound 0.000316 µM): 111%; viability, T/C (second compound 0.316 µM, first compound 0.001 µM): 95.5%; viability, T/C [8]: 111%; viability, T/C (second compound 1 µM, first compound 0.000316 µM): 100%; viability, T/C (second compound 1 µM, first compound 0.001 µM): 103%; viability, T/C [13]: 103%; viability, T/C [14]: 91.5%; viability, T/C (second compound 3.16 µM, first compound 0.000316 µM): 106%; viability, T/C (second compound 3.16 µM, first compound 0.001 µM): 99%; viability, T/C [19]: 113%; viability, T/C [20]: 97.9%; viability, T/C (second compound 10 µM, first compound 0.000316 µM): 95.4%; viability, T/C (second compound 10 µM, first compound 0.001 µM): 95.9%; viability, T/C [25]: 116%; viability, T/C [26]: 96.1% |
| O=C(c1cc(Cc2n[nH]c(=O)c3ccccc23)ccc1F)N1CCN(C(=O)C2CC2)CC1 + Cc1c(S(C)(=O)=O)c(-c2cc(F)cc(N3CCN(c4ccc(NS(=O)(=O)c5ccc(NC(CCN6CCC(C(=O)OCCCP(=O)(O)O)CC6)CSc6ccccc6)c(S(=O)(=O)C(F)(F)F)c5)cc4)CC3)c2)c(-c2ccc(Cl)cc2)n1C(C)C | > 10000 nM | > 10000 nM | 7980 nM | 4390 nM | 4740 nM |  |  | 96.9% | 87.8% | 99.3% | 114% |  | 89.1% | 101% | 99.7% | 101% | 96% | 93.5% | 92.6% | 95.1% | viability, T/C (second compound 0.1 µM, first compound 3.16 µM): 103%; viability, T/C (second compound 0.1 µM, first compound 10 µM): 91.8%; viability, T/C [11]: 96.2%; viability, T/C [12]: 104%; viability, T/C (second compound 0.316 µM, first compound 3.16 µM): 86.3%; viability, T/C (second compound 0.316 µM, first compound 10 µM): 65.8%; viability, T/C [17]: 96.2%; viability, T/C [18]: 96.5%; viability, T/C (second compound 1 µM, first compound 3.16 µM): 86.7%; viability, T/C (second compound 1 µM, first compound 10 µM): 40.7%; viability, T/C [23]: 109%; viability, T/C [24]: 93%; viability, T/C (second compound 3.16 µM, first compound 3.16 µM): 60.5%; viability, T/C (second compound 3.16 µM, first compound 10 µM): 24%; viability, T/C [29]: 96.5%; viability, T/C [30]: 88.9%; viability, T/C (second compound 10 µM, first compound 3.16 µM): 67.6%; viability, T/C (second compound 10 µM, first compound 10 µM): 17.9% |
| O=C(c1ccc(F)c(F)c1Nc1ccc(I)cc1F)N1CC(O)([C@@H]2CCCCN2)C1 + Cc1c(S(C)(=O)=O)c(-c2cc(F)cc(N3CCN(c4ccc(NS(=O)(=O)c5ccc(NC(CCN6CCC(C(=O)OCCCP(=O)(O)O)CC6)CSc6ccccc6)c(S(=O)(=O)C(F)(F)F)c5)cc4)CC3)c2)c(-c2ccc(Cl)cc2)n1C(C)C | 93.4 nM | 73.3 nM | 65.9 nM | 57.8 nM | 52 nM | 95.5% | 92.4% | 107% | 47% | 9.22% | 4.73% | 101% | 88.8% | 35.7% | 103% | 20.7% | 94.7% | 10.2% | 82% | 7.98% | viability, T/C [8]: 97.8%; viability, T/C [11]: 5.96%; viability, T/C [12]: 2.79%; viability, T/C [13]: 102%; viability, T/C [14]: 99.2%; viability, T/C [17]: 2.79%; viability, T/C [18]: 1.09%; viability, T/C [19]: 93.5%; viability, T/C [20]: 93.1%; viability, T/C [23]: 1.13%; viability, T/C [24]: 0.48%; viability, T/C [25]: 88.1%; viability, T/C [26]: 93.5%; viability, T/C [29]: 4.2%; viability, T/C [30]: 0.52% |
